Source: PubChem BioAssay AID248 (DTP/NCI, 2004)
“And” between values parts separate entries of the source, which are not always exact repeats. Equal entries are not always repeated. Toxic doses and inconclusive results are not listed. Cut-off read from the data, not from the text of the source: active = T/C of 150% or more; inactive = T/C below 125%.

Test system: L1210 leukemia ip in BDF1 mice, survival T/C
Experiment: NCI In Vivo Anticancer Drug Screen. Data for tumor model L1210 Leukemia (intraperitoneal) in B6D2F1 (BDF1) mice
Conditions: endpoint: mean survival time, higher = longer survival
In short: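 Transplanted-tumor mice were given test agent; controls received vehicle only. Survival readings from the two groups were divided (treated over control).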

[1] = dose: 100.0 mg/kg/injection, schedule: Q04DX002 (ip), vehicle: saline with Tween-80
[2] = dose: 200.0 mg/kg/injection, schedule: Q04DX002 (ip), vehicle: saline with Tween-80
[3] = dose: 100.0 mg/kg/injection, schedule: Q01DX009 (ip), vehicle: saline with Tween-80
[4] = dose: 200.0 mg/kg/injection, schedule: Q01DX009 (ip), vehicle: saline with Tween-80
[5] = dose: 100.0 mg/kg/injection, schedule: Q01DX001 (ip), vehicle: saline
[6] = dose: 400.0 mg/kg/injection, schedule: Q01DX001 (ip), vehicle: saline
[7] = dose: 50.0 mg/kg/injection, schedule: Q01DX009 (ip), vehicle: Klucel (hydroxypropylcellulose) (HPC)
[8] = dose: 100.0 mg/kg/injection, schedule: Q01DX009 (ip), vehicle: Klucel (hydroxypropylcellulose) (HPC)
[9] = dose: 200.0 mg/kg/injection, schedule: Q01DX009 (ip), vehicle: Klucel (hydroxypropylcellulose) (HPC)
[10] = dose: 200.0 mg/kg/injection, schedule: Q04DX002 (ip), vehicle: saline
[11] = dose: 200.0 mg/kg/injection, schedule: Q01DX001 (ip), vehicle: saline
[12] = dose: 100.0 mg/kg/injection, schedule: Q04DX003 (ip), vehicle: saline with Tween-80
[13] = dose: 200.0 mg/kg/injection, schedule: Q04DX003 (ip), vehicle: saline with Tween-80
[14] = dose: 400.0 mg/kg/injection, schedule: Q04DX003 (ip), vehicle: saline with Tween-80

Measured: T/C

C[PH+](c1ccccc1)c1ccccc1.C[PH+](c1ccccc1)c1ccccc1.O=C([S-])[S-].[Pt+2]
inactive: dose: 75.0 mg/kg/injection, schedule: Q04DX003 (ip), vehicle: saline 97 % of control | dose: 150.0 mg/kg/injection, schedule: Q04DX003 (ip), vehicle: saline 92 % of control | dose: 300.0 mg/kg/injection, schedule: Q04DX003 (ip), vehicle: saline 100 % of control

C1=C(N2CCOCC2)CCCCC1
inactive: dose: 100.0 mg/kg/injection, schedule: Q01DX009 (ip), vehicle: saline 108 % of control | dose: 200.0 mg/kg/injection, schedule: Q01DX009 (ip), vehicle: saline 109 % of control | dose: 400.0 mg/kg/injection, schedule: Q01DX009 (ip), vehicle: saline 108 % of control

CCCCc1cn(C(=O)CCCl)nn1
inactive: [1] 100 % of control | [2] 100 % of control

OC(c1ccccc1)C1CCCC1 (centres undefined)
inactive: dose: 50.0 mg/kg/injection, schedule: Q01DX009 (ip), vehicle: saline with Tween-80 90 % of control | [3] 93 % of control | [4] 90 % of control

CCOP(N)(=O)SC (centres undefined)
inactive: dose: 5.0 mg/kg/injection, schedule: Q01DX001 (ip), vehicle: saline 101 % of control

NC(Cc1ccc(N(CCCl)Cc2ccccc2)cc1)C(=O)O (centres undefined)
inactive: dose: 3.12 mg/kg/injection, schedule: Q01DX009 (ip), vehicle: distilled water + Tween-80 97 % of control | dose: 6.25 mg/kg/injection, schedule: Q01DX009 (ip), vehicle: distilled water + Tween-80 107 % of control | dose: 12.5 mg/kg/injection, schedule: Q01DX009 (ip), vehicle: distilled water + Tween-80 96 % of control | dose: 25.0 mg/kg/injection, schedule: Q01DX009 (ip), vehicle: distilled water + Tween-80 113 % of control | dose: 100.0 mg/kg/injection, schedule: Q01DX009 (ip), vehicle: distilled water + Tween-80 97 % of control

O=c1/c(=C\c2ccc(Cl)c(Cl)c2)sc2n1CCN=2
inactive: [5] 86 % of control | [6] 93 % of control

CCOC(=O)C(C)(O)C(C)(Cl)c1ccccc1 (centres undefined)
inactive: dose: 25.0 mg/kg/injection, schedule: Q01DX009 (ip), vehicle: Klucel (hydroxypropylcellulose) (HPC) 98 % of control | dose: 25.0 mg/kg/injection, schedule: Q04DX002 (ip), vehicle: saline 102 % of control | dose: 28.0 mg/kg/injection, schedule: Q01DX001 (ip), vehicle: saline 107 % of control | dose: 44.0 mg/kg/injection, schedule: Q01DX001 (ip), vehicle: saline 106 % of control | [7] 96 % of control | dose: 50.0 mg/kg/injection, schedule: Q04DX002 (ip), vehicle: saline 114 % of control | dose: 66.0 mg/kg/injection, schedule: Q01DX001 (ip), vehicle: saline 104 % of control | [5] 101 % of control | [8] 101 % of control | dose: 150.0 mg/kg/injection, schedule: Q01DX001 (ip), vehicle: saline 104 % of control | [9] 98 % of control | [10] 109 % of control and 111 % of control | dose: 400.0 mg/kg/injection, schedule: Q04DX002 (ip), vehicle: saline 114 % of control

CC1(CC(=O)O)CCCCC1CC(=O)O (centres undefined)
inactive: dose: 100.0 mg/kg/injection, schedule: Q04DX002 (ip), vehicle: Klucel (hydroxypropylcellulose) (HPC) 110 % of control | dose: 200.0 mg/kg/injection, schedule: Q04DX002 (ip), vehicle: Klucel (hydroxypropylcellulose) (HPC) 103 % of control | dose: 400.0 mg/kg/injection, schedule: Q04DX002 (ip), vehicle: Klucel (hydroxypropylcellulose) (HPC) 97 % of control

Cc1[nH]nc(C(=O)O)c1Br
inactive: dose: 25.0 mg/kg/injection, schedule: Q01DX005 (ip), vehicle: saline 100 % of control | dose: 50.0 mg/kg/injection, schedule: Q01DX005 (ip), vehicle: saline 105 % of control | dose: 100.0 mg/kg/injection, schedule: Q01DX005 (ip), vehicle: saline 122 % of control | dose: 200.0 mg/kg/injection, schedule: Q01DX005 (ip), vehicle: saline 102 % of control | dose: 400.0 mg/kg/injection, schedule: Q01DX005 (ip), vehicle: saline 113 % of control

CCN1C(=O)c2ccccc2C1=O
inactive: [7] 107 % of control | [5] 96 % of control | [8] 94 % of control | [11] 98 % of control | [9] 89 % of control | [6] 88 % of control

CCNC(=O)C1C2CC3OC(=O)C1C3C2 (centres undefined)
inactive: [12] 90 % of control | [13] 95 % of control | [14] 95 % of control

CCCCCCCC(=O)N1C(=O)CCC1C(=O)NCCCCC(=O)OC (centres undefined)
inactive: [1] 103 % of control | [2] 116 % of control | dose: 400.0 mg/kg/injection, schedule: Q04DX002 (ip), vehicle: saline with Tween-80 90 % of control

COc1ccc(CC(C)N)cc1OC (centres undefined)
inactive: dose: 100.0 mg/kg/injection, schedule: Q04DX002 (ip), vehicle: saline 105 % of control | [10] 102 % of control

CCOc1cc(-c2nc(-c3ccc(N=Cc4ccc(N(CCCOS(C)(=O)=O)CCCOS(C)(=O)=O)cc4)cc3)cs2)ccc1OCc1ccccc1
inactive: [3] 92 % of control | [4] 94 % of control | dose: 400.0 mg/kg/injection, schedule: Q01DX009 (ip), vehicle: saline with Tween-80 92 % of control

CNCCc1ccc2cc(OC)c(OC)cc2c1
inactive: [12] 91 % of control

COc1ccc(C(=O)c2cccs2)cc1
inactive: dose: 50.0 mg/kg/injection, schedule: Q01DX009 (ip), vehicle: saline sonified 101 % of control | dose: 100.0 mg/kg/injection, schedule: Q01DX009 (ip), vehicle: saline sonified 104 % of control | dose: 100.0 mg/kg/injection, schedule: Q04DX003 (ip), vehicle: Klucel (hydroxypropylcellulose) (HPC) 97 % of control | dose: 200.0 mg/kg/injection, schedule: Q01DX009 (ip), vehicle: saline sonified 102 % of control | dose: 200.0 mg/kg/injection, schedule: Q04DX003 (ip), vehicle: Klucel (hydroxypropylcellulose) (HPC) 94 % of control

NC(=O)c1ccc[n+](CC(=O)Nc2ccccc2)c1
inactive: [12] 101 % of control | [13] 97 % of control | [14] 95 % of control

CC(C)C/C=N/Nc1ccnc(SCc2ccccc2)n1
inactive: dose: 100.0 mg/kg/injection, schedule: Q04DX003 (ip), vehicle: DMSO 95 % of control | dose: 200.0 mg/kg/injection, schedule: Q04DX003 (ip), vehicle: DMSO 103 % of control | dose: 400.0 mg/kg/injection, schedule: Q04DX003 (ip), vehicle: DMSO 95 % of control

COc1ccc(NP2(=O)OCC(C)([N+](=O)[O-])CO2)cc1 (centres undefined)
inactive: dose: 50.0 mg/kg/injection, schedule: Q01DX001 (ip), vehicle: saline 98 % of control | [5] 102 % of control | [11] 98 % of control | [6] 96 % of control

COC(=O)C(C)C(=O)OC
inactive: dose: 100.0 mg/kg/injection, schedule: Q01DX009 (ip), vehicle: acetone 93 % of control | dose: 100.0 mg/kg/injection, schedule: Q04DX003 (ip), vehicle: acetone 107 % of control | dose: 200.0 mg/kg/injection, schedule: Q01DX009 (ip), vehicle: acetone 97 % of control | dose: 200.0 mg/kg/injection, schedule: Q04DX003 (ip), vehicle: acetone 97 % of control | dose: 400.0 mg/kg/injection, schedule: Q01DX009 (ip), vehicle: acetone 93 % of control | dose: 400.0 mg/kg/injection, schedule: Q04DX003 (ip), vehicle: acetone 94 % of control
